Measured values reported in ChEMBL document CHEMBL1201862, “PubChem BioAssay data set” (2004).
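Five compound concentrations were applied to cells in 96-well plates for 48 hours; endpoints were derived by simple linear interpolation of the resulting dose-response curve. At the GI50, growth is halved.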 The source made the active and inactive calls. No stated cut-off is given here; in the data, active = GI50 up to about 1.1 µM and inactive = higher.

Legend:
Experiment in all cases: NCI tumour cell line growth inhibition, 48 h
[1] = test system: OVCAR-3
[2] = test system: A549
[3] = test system: MOLT-4
[4] = test system: IGROV-1
[5] = test system: SN12C
[6] = test system: HL-60
[7] = test system: CAKI-1
[8] = test system: SF-268
[9] = test system: SK-MEL-28
[10] = test system: SW-620
[11] = test system: HCT-15
[12] = test system: U-251
[13] = test system: SF-539
[14] = test system: UACC-62
[15] = test system: A498
[16] = test system: KM12
[17] = test system: HOP-92

Row | Compound | GI50 [1] | GI50 [2] | GI50 [3] | GI50 [4] | GI50 [5] | GI50 [6] | GI50 [7] | GI50 [8] | GI50 [9] | GI50 [10] | GI50 [11] [µM] | GI50 [12] | GI50 [13] | GI50 [14] | GI50 [15] | GI50 [16] | GI50 [17]
1 | COc1ccc(/C=C2\CCCCC2=O)cc1 | > 100 µM (inactive) | > 100 µM (inactive) | > 100 µM (inactive) | > 100 µM (inactive) | > 100 µM (inactive) | > 100 µM (inactive) | 92.5 µM (inactive) | > 100 µM (inactive) | > 100 µM (inactive) | > 100 µM (inactive) | > 100 | > 100 µM (inactive) | > 100 µM (inactive) | > 100 µM (inactive) | > 100 µM (inactive) | – | –
2 | [O-]c1c2cc(-[n+]3c(-c4ccccc4)cc(-c4ccccc4)cc3-c3ccccc3)cc1COCCOCCOCCOCCOC2 | – | 60 µM (inactive) | 32.1 µM (inactive) | – | 38.8 µM (inactive) | 31.8 µM (inactive) | > 100 µM (inactive) | 29 µM (inactive) | 18 µM (inactive) | 48.9 µM (inactive) | 73.6 | 38.8 µM (inactive) | 33 µM (inactive) | 19.5 µM (inactive) | – | 20.4 µM (inactive) | 26 µM (inactive)
3 | O=c1[nH]c2cc([N+](=O)[O-])ccc2nc1/C(=N/Nc1ccccc1)C(O)c1ccccc1Cl (configuration not stated) | 59.3 µM (inactive) | 41.9 µM (inactive) | > 100 µM (inactive) | 43.9 µM (inactive) | > 100 µM (inactive) | > 100 µM (inactive) | – | > 100 µM (inactive) | > 100 µM (inactive) | 41.9 µM (inactive) | 7.8 | 58.6 µM (inactive) | 44.9 µM (inactive) | 11.2 µM (inactive) | – | 27.8 µM (inactive) | > 100 µM (inactive)
4 | COc1cccc(C2c3cc4c(cc3OC(O)(CO)C2C(=O)O)OCO4)c1.COc1cccc(C2c3cc4c(cc3OC3(O)COC(=O)C23)OCO4)c1 (configuration not stated) | 69.5 µM (inactive) | 82.2 µM (inactive) | 35.7 µM (inactive) | 62.7 µM (inactive) | 55.3 µM (inactive) | 33.7 µM (inactive) | – | 40.4 µM (inactive) | 26.9 µM (inactive) | 82.2 µM (inactive) | 43.9 | 22.2 µM (inactive) | > 100 µM (inactive) | 33.5 µM (inactive) | 47.4 µM (inactive) | 35.7 µM (inactive) | 30.6 µM (inactive)
5 | N#CC(C(=N/NC(N)=S)/C(=N\NC(N)=S)C(C#N)c1ccccc1)c1ccccc1 (configuration not stated) | > 10 µM (inactive) | > 10 µM (inactive) | > 10 µM (inactive) | – | > 10 µM (inactive) | > 10 µM (inactive) | – | > 10 µM (inactive) | > 10 µM (inactive) | > 10 µM (inactive) | > 10 | > 10 µM (inactive) | > 10 µM (inactive) | > 10 µM (inactive) | > 10 µM (inactive) | > 10 µM (inactive) | > 10 µM (inactive)
6 | O=[N+]([O-])c1cccc(C2=NN(c3ccccc3)C3c4ccccc4OCC23)c1 (configuration not stated) | > 100 µM (inactive) | > 100 µM (inactive) | > 100 µM (inactive) | > 100 µM (inactive) | – | 66.1 µM (inactive) | – | > 100 µM (inactive) | > 100 µM (inactive) | > 100 µM (inactive) | – | > 100 µM (inactive) | > 100 µM (inactive) | – | > 100 µM (inactive) | > 100 µM (inactive) | 52.8 µM (inactive)
7 | Cc1ccc(Nc2nc(-c3ccc(-c4ccc([N+](=O)[O-])cc4)o3)cs2)cc1 | > 100 µM (inactive) | 52.7 µM (inactive) | 4.54 µM (inactive) | 22.7 µM (inactive) | 73.6 µM (inactive) | 58.7 µM (inactive) | > 100 µM (inactive) | > 100 µM (inactive) | 38 µM (inactive) | 95.3 µM (inactive) | 15.7 | 35 µM (inactive) | 93.8 µM (inactive) | 99.8 µM (inactive) | – | 52.8 µM (inactive) | 37.2 µM (inactive)
8 | Cc1cc(Br)ccc1NC1=CC(=O)C(=O)c2ccccc21 | 35 µM (inactive) | 39.1 µM (inactive) | 39.4 µM (inactive) | 77.6 µM (inactive) | 60.1 µM (inactive) | 13.6 µM (inactive) | 28.1 µM (inactive) | 47.4 µM (inactive) | 45.3 µM (inactive) | 29.9 µM (inactive) | 55.2 | 26.4 µM (inactive) | 74.8 µM (inactive) | 20 µM (inactive) | 86.7 µM (inactive) | 38.5 µM (inactive) | –
9 | Cc1cc(N(CCC#N)CCC#N)ccc1/C=C/C(=O)Nc1cccc(Cl)c1 | > 100 µM (inactive) | > 100 µM (inactive) | > 100 µM (inactive) | > 100 µM (inactive) | > 100 µM (inactive) | 51.3 µM (inactive) | > 100 µM (inactive) | > 100 µM (inactive) | > 100 µM (inactive) | > 100 µM (inactive) | 38.5 | > 100 µM (inactive) | > 100 µM (inactive) | 46.9 µM (inactive) | > 100 µM (inactive) | > 100 µM (inactive) | 43.4 µM (inactive)
10 | C/C(CC(=O)Nc1cc(C)ccc1C)=N/N=C(N)N | > 100 µM (inactive) | > 100 µM (inactive) | > 100 µM (inactive) | > 100 µM (inactive) | – | > 100 µM (inactive) | – | > 100 µM (inactive) | > 100 µM (inactive) | > 100 µM (inactive) | – | > 100 µM (inactive) | > 100 µM (inactive) | > 100 µM (inactive) | > 100 µM (inactive) | > 100 µM (inactive) | > 100 µM (inactive)
11 | O=C(O)C#CCO | > 100 µM (inactive) | > 100 µM (inactive) | > 100 µM (inactive) | > 100 µM (inactive) | > 100 µM (inactive) | > 100 µM (inactive) | > 100 µM (inactive) | > 100 µM (inactive) | > 100 µM (inactive) | > 100 µM (inactive) | > 100 | > 100 µM (inactive) | > 100 µM (inactive) | > 100 µM (inactive) | > 100 µM (inactive) | > 100 µM (inactive) | > 100 µM (inactive)
12 | N=C(N)NS(=O)(=O)c1ccc(NC(=O)c2cccc3c(Nc4ccc(S(=O)(=O)N=C(N)N)cc4)c4ccc(Cl)cc4nc23)cc1 | 60.5 µM (inactive) | 53 µM (inactive) | 56.2 µM (inactive) | 74.8 µM (inactive) | 75.5 µM (inactive) | – | 94.6 µM (inactive) | 48.4 µM (inactive) | 75 µM (inactive) | 62.4 µM (inactive) | > 100 | 37.2 µM (inactive) | > 100 µM (inactive) | 33.3 µM (inactive) | > 100 µM (inactive) | > 100 µM (inactive) | 32.7 µM (inactive)
13 | CC(Cn1c2c3ccccc3ccc2c2oc(=O)c3ccccc3c21)N(C)C (configuration not stated) | > 100 µM (inactive) | > 100 µM (inactive) | > 100 µM (inactive) | > 100 µM (inactive) | – | > 100 µM (inactive) | > 100 µM (inactive) | > 100 µM (inactive) | > 100 µM (inactive) | > 100 µM (inactive) | > 100 | > 100 µM (inactive) | > 100 µM (inactive) | > 100 µM (inactive) | – | > 100 µM (inactive) | > 100 µM (inactive)
14 | Nc1ncnc2c1ncn2CCCC(c1ccccc1)P(=O)(O)O (configuration not stated) | > 100 µM (inactive) | > 100 µM (inactive) | – | > 100 µM (inactive) | > 100 µM (inactive) | > 100 µM (inactive) | 17 µM (inactive) | > 100 µM (inactive) | > 100 µM (inactive) | > 100 µM (inactive) | > 100 | > 100 µM (inactive) | > 100 µM (inactive) | > 100 µM (inactive) | 63 µM (inactive) | > 100 µM (inactive) | –
15 | O=S(O)CCCSSCCCCSSCCCS(=O)O | > 100 µM (inactive) | > 100 µM (inactive) | 26.7 µM (inactive) | > 100 µM (inactive) | > 100 µM (inactive) | – | > 100 µM (inactive) | > 100 µM (inactive) | > 100 µM (inactive) | > 100 µM (inactive) | > 100 | > 100 µM (inactive) | > 100 µM (inactive) | > 100 µM (inactive) | > 100 µM (inactive) | > 100 µM (inactive) | –
16 | COC(=O)C(c1ccc(OC)cc1)N1C(=O)[C@@H](NC(=O)c2ccccc2)[C@H]1[C@@H](C)O (some centres not stated) | > 100 µM (inactive) | > 100 µM (inactive) | > 100 µM (inactive) | > 100 µM (inactive) | > 100 µM (inactive) | > 100 µM (inactive) | – | > 100 µM (inactive) | > 100 µM (inactive) | > 100 µM (inactive) | > 100 | > 100 µM (inactive) | > 100 µM (inactive) | > 100 µM (inactive) | – | > 100 µM (inactive) | > 100 µM (inactive)
17 | COC(OC)[C@@H](C)[C@H](O)[C@](C)(O)C1OC(C)(C)OC(C(C)C=C(C)C)C1C (some centres not stated) | > 100 µM (inactive) | > 100 µM (inactive) | 72.4 µM (inactive) | > 100 µM (inactive) | > 100 µM (inactive) | 29.9 µM (inactive) | > 100 µM (inactive) | > 100 µM (inactive) | > 100 µM (inactive) | > 100 µM (inactive) | > 100 | > 100 µM (inactive) | > 100 µM (inactive) | > 100 µM (inactive) | > 100 µM (inactive) | > 100 µM (inactive) | > 100 µM (inactive)
18 | CC1(C)CC[C@]2(C(=O)O)CCC3(C)C(=CCC4[C@@]5(C)CC[C@H](OC6OCC(O)C(O)C6OC6OC(CO)C(O)C(O)C6O)C(C)(C)C5CC[C@]43C)C2C1 (some centres not stated) | 2.12 µM (inactive) | 1.86 µM (inactive) | 2.98 µM (inactive) | 2.67 µM (inactive) | 1.89 µM (inactive) | – | 1.66 µM (inactive) | 2.4 µM (inactive) | 2.33 µM (inactive) | 2.15 µM (inactive) | 2.17 | 1.93 µM (inactive) | 2.22 µM (inactive) | 1.83 µM (inactive) | 2.18 µM (inactive) | 2.24 µM (inactive) | 1.84 µM (inactive)
